“And” between values parts separate entries of the source, which are not always exact repeats. Identical values can stand only once.
Key:
[1] = tested on: patients with MUM; experiment: Patient disposition, duration of exposure and dose interruptions; format: in vivo
Experimental: During dose escalation, patients received oral LXS196 either once daily (QD; 100–1000 mg) or twice daily (BID; 200–400 mg) in 28-day cycles until disease progression, intolerable toxicity or withdrawal of consent (Supplementary Fig. 1). Dosing was omitted on the second day of the first cycle (C1D2) to allow for longer post-dose sampling in order to better characterise PK. LXS196 was given on an empty stomach, at least 1 h before or 2 h after a meal. Dose escalation was guided by safety, PK data and a two-parameter Bayesian Logistic Regression Model (BLRM) employing escalation with overdose control (EWOC) criteria. The DLT period lasted 28 days after the first dose of LXS196. […] Upon determination of the MTD/RDE, the expansion part of the study was opened to further evaluate the safety, tolerability, PK and PD of LXS196 at the RDE in patients with MUM. No hypothesis testing was planned in this study, and therefore, no formal sample size calculation was needed. The sample size was selected to ensure the BLRM had adequate operating characteristics when selecting the MTD/RDE.
Routine safety assessments, including laboratory assessments, physical examinations, vital signs and electrocardiograms (ECGs), were conducted at regular intervals throughout the study and more frequently as needed following patient assessment by the treating physician. Adverse events (AEs) were assessed continuously according to the National Cancer Institute Common Terminology Criteria for Adverse Events (NCI-CTCAE) v4.03.

[2] = tested on: metastatic uveal melanoma (MUM); experiment: Tumour response (RECIST v1.1) and progression-free survival; format: in vivo, human
Experimental: (§1) Tumour response was assessed locally by computed tomography (CT) and/or magnetic resonance imaging (MRI) of the chest, abdomen and pelvis, according to Response Evaluation Criteria in Solid Tumours (RECIST) v1.1 at baseline, on C3D1 and every two cycles thereafter until cycle 11. After 11 cycles of treatment, response was evaluated every three cycles until the end of treatment. Fresh metastatic tumour biopsies were collected at baseline (prior to first dose) and on treatment at C1D15 to evaluate the modulation of PKC substrate proteins in tumours following exposure to LXS196 and to perform exploratory transcriptome and targeted DNA sequencing. Whole blood samples (peripheral blood mononuclear cells; PBMCs) were collected pre-dose on C1D1 and D15, and at various time points post-dose on C1D1, D2, D3, D15 and D16 to evaluate the modulation of PKC substrate proteins in a surrogate tissue. Owing to the exploratory nature of this phase I study, formal statistical tests were not planned to be performed. Data are presented using descriptive statistics and visualisations. Continuous variables are described with the mean and range. Categorical variables are described using counts and percentages. PFS is described using the Kaplan–Meier (KM) method.

[3] = tested on: 92.1 human UM xenograft; set-up: method as in PMID 27507190; settings: doses below MTD; cited from earlier work
[4] = tested on: pPKC delta; experiment: pPKC delta in PBMCs; format: in vivo, human; settings: all dose levels
Text: as §1, with “Fresh” for “Tumour response was assessed locally by computed tomography (CT) and/or magnetic resonance imaging (MRI) of the chest, abdomen and pelvis, according to Response Evaluation Criteria in Solid Tumours (RECIST) v1.1 at baseline, on C3D1 and every two cycles thereafter until cycle 11. After 11 cycles of treatment, response was evaluated every three cycles until the end of treatment. Fresh”

CC1(N)CCN(c2cccnc2NC(=O)c2nc(-c3ncccc3C(F)(F)F)cnc2N)CC1 [LXS196]
Dose interruption by reason: adverse event ([1]; 300 mg BID (RDE) n=18): 3 (16.7) n (%)
Dose interruption by reason: patient/guardian decision ([1]; 300 mg BID (RDE) n=18): 0 n (%)
Dose interruption by reason: physician decision ([1]; 300 mg BID (RDE) n=18): 0 n (%)
With at least one dose interruption ([1]; 300 mg BID (RDE) n=18): 3 (16.7) n (%)
With more than one dose interruption ([1]; 300 mg BID (RDE) n=18): 1 (5.6) n (%)
With only one dose interruption ([1]; 300 mg BID (RDE) n=18): 2 (11.1) n (%)
Dose interruption by reason: adverse event ([1]; All BID n=30): 5 (16.7) n (%)
Dose interruption by reason: patient/guardian decision ([1]; All BID n=30): 1 (3.3) n (%)
Dose interruption by reason: physician decision ([1]; All BID n=30): 0 n (%)
With at least one dose interruption ([1]; All BID n=30): 6 (20) n (%)
With more than one dose interruption ([1]; All BID n=30): 3 (10.0) n (%)
With only one dose interruption ([1]; All BID n=30): 3 (10) n (%)
Dose interruption by reason: adverse event ([1]; All QD n=38): 11 (28.9) n (%)
Dose interruption by reason: patient/guardian decision ([1]; All QD n=38): 0 n (%)
Dose interruption by reason: physician decision ([1]; All QD n=38): 1 (2.6) n (%)
With at least one dose interruption ([1]; All QD n=38): 11 (28.9) n (%)
With more than one dose interruption ([1]; All QD n=38): 5 (13.2) n (%)
With only one dose interruption ([1]; All QD n=38): 6 (15.8) n (%)
Dose interruption by reason: adverse event ([1]; All patients N=68): 16 (23.5) n (%)
Dose interruption by reason: patient/guardian decision ([1]; All patients N=68): 1 (1.5) n (%)
Dose interruption by reason: physician decision ([1]; All patients N=68): 1 (1.5) n (%)
With at least one dose interruption ([1]; All patients N=68): 17 (25) n (%)
With more than one dose interruption ([1]; All patients N=68): 8 (11.8) n (%)
With only one dose interruption ([1]; All patients N=68): 9 (13.2) n (%)
BOR: complete response (CR) ([2]; 300 mg BID (RDE) n=18): 0 n (%)
BOR: partial response (PR) ([2]; 300 mg BID (RDE) n=18): 2 (11.1%) n (%) and 2 (11.1) n (%)
BOR: progressive disease (PD) ([2]; 300 mg BID (RDE) n=18): 3 (16.7) n (%)
BOR: unknown ([2]; 300 mg BID (RDE) n=18): 1 (5.6) n (%)
Kaplan–Meier PFS rate (95% CI) at 4 months ([2]; 300 mg BID (RDE) n=18): 44.4 (21.6–65.1) %
Kaplan–Meier PFS rate (95% CI) at 6 months ([2]; 300 mg BID (RDE) n=18): 27.8 (10.1–48.9) %
Kaplan–Meier PFS rate (95% CI) at 12 months ([2]; 300 mg BID (RDE) n=18): 22.2 (6.9–42.9) %
Number of PFS events ([2]; 300 mg BID (RDE) n=18): 18 (100) n (%)
PFS 25th percentile (95% CI) ([2]; 300 mg BID (RDE) n=18): 2.1 (0.8–3.6) months
PFS 50th percentile, median PFS (95% CI) ([2]; 300 mg BID (RDE) n=18): 3.7 (2.1–5.4) months
PFS 75th percentile (95% CI) ([2]; 300 mg BID (RDE) n=18): 7.2 (3.7–25.8) months
PFS events: deaths ([2]; 300 mg BID (RDE) n=18): 1 (5.6) n (%)
PFS events: progression ([2]; 300 mg BID (RDE) n=18): 17 (94.4) n (%)
BOR: complete response (CR) ([2]; All BID n=30): 1 n (%) and 1 (3.3) n (%)
BOR: partial response (PR) ([2]; All BID n=30): 3 n (%) and 3 (10.0) n (%)
BOR: progressive disease (PD) ([2]; All BID n=30): 6 (20.0) n (%)
BOR: unknown ([2]; All BID n=30): 2 (6.7) n (%)
Kaplan–Meier PFS rate (95% CI) at 4 months ([2]; All BID n=30): 50.0 (31.3–66.1) %
Kaplan–Meier PFS rate (95% CI) at 6 months ([2]; All BID n=30): 33.3 (17.5–50.0) %
Kaplan–Meier PFS rate (95% CI) at 12 months ([2]; All BID n=30): 26.7 (12.6–43.0) %
Number of PFS events ([2]; All BID n=30): 30 (100) n (%)
Overall response rate (ORR: CR + PR) ([2]; All BID n=30): 4 (13.3%) n (%) [95% CI]
PFS 25th percentile (95% CI) ([2]; All BID n=30): 1.9 (1.6–3.6) months
PFS 50th percentile, median PFS (95% CI) ([2]; All BID n=30): 4.1 (3.5–7.2) months
PFS 75th percentile (95% CI) ([2]; All BID n=30): 12.9 (5.4–25.8) months
PFS events: deaths ([2]; All BID n=30): 2 (6.7) n (%)
PFS events: progression ([2]; All BID n=30): 28 (93.3) n (%)
BOR: complete response (CR) ([2]; All QD n=38): 0 n (%)
BOR: partial response (PR) ([2]; All QD n=38): 2 n (%) and 2 (5.3) n (%)
BOR: progressive disease (PD) ([2]; All QD n=38): 9 (23.7) n (%)
BOR: unknown ([2]; All QD n=38): 0 n (%)
Kaplan–Meier PFS rate (95% CI) at 4 months ([2]; All QD n=38): 36.8 (22.0–51.8) %
Kaplan–Meier PFS rate (95% CI) at 6 months ([2]; All QD n=38): 26.3 (13.7–40.8) %
Kaplan–Meier PFS rate (95% CI) at 12 months ([2]; All QD n=38): 0.0 (NE–NE) %
Number of PFS events ([2]; All QD n=38): 38 (100.0) n (%)
PFS 25th percentile (95% CI) ([2]; All QD n=38): 3.4 (1.7–3.5) months
PFS 50th percentile, median PFS (95% CI) ([2]; All QD n=38): 3.5 (3.5–5.4) months
PFS 75th percentile (95% CI) ([2]; All QD n=38): 6.0 (3.6–7.3) months
PFS events: deaths ([2]; All QD n=38): 0 (0.0) n (%)
PFS events: progression ([2]; All QD n=38): 38 (100.0) n (%)
BOR: complete response (CR) ([2]; All patients N=68): 1 (1.5) n (%)
BOR: partial response (PR) ([2]; All patients N=68): 5 n (%) and 5 (7.4) n (%)
BOR: progressive disease (PD) ([2]; All patients N=68): 15 (22.1) n (%)
BOR: unknown ([2]; All patients N=68): 2 (2.9) n (%)
Kaplan–Meier PFS rate (95% CI) at 4 months ([2]; All patients N=68): 42.6 (30.8–54.0) %
Kaplan–Meier PFS rate (95% CI) at 6 months ([2]; All patients N=68): 29.4%
Kaplan–Meier PFS rate (95% CI) at 12 months ([2]; All patients N=68): 11.8 (5.5–20.6) %
Number of PFS events ([2]; All patients N=68): 68 (100) n (%)
Overall response rate (ORR: CR + PR) ([2]; All patients N=68): 8.8 n (%) [95% CI]
PFS 25th percentile (95% CI) ([2]; All patients N=68): 2.0 (1.7–3.5) months
PFS 50th percentile, median PFS (95% CI) ([2]; All patients N=68): 3.6 (3.5–5.4) months
PFS 75th percentile (95% CI) ([2]; All patients N=68): 7.2 (5.4–9.4) months
PFS events: deaths ([2]; All patients N=68): 2 n (%) and 2 (2.9) n (%)
PFS events: progression ([2]; All patients N=68): 66 n (%) and 66 (97.1) n (%)
Stable disease (SD) in evaluable patients ([2]; RECIST v1.1, all doses): 45/66
Median duration of SD ([2]; n=45, range 2.07–30.23): 5.32 months
Median duration of response ([2]; patients with RECIST response n=6, range 2.99–41.95): 10.15 months and 10 months
Tumour effect as single agent [3]: tumour regression
Time post-dose to reduction in pPKC delta in PBMCs [4]: ≤ 6 h

Source: paper PMC10006169, “A phase I trial of LXS196, a protein kinase C (PKC) inhibitor, for metastatic uveal melanoma” (British Journal of Cancer, 2023)
